Data taken from patent US11753407B2, “Compounds for treating spinal muscular atrophy” (PTC Therapeutics, Inc., priority 2012, dated 2023).

Key:
[1] = tested on: Smn protein in SMA patient fibroblast cells (GM03813); assay: Smn protein assay in cultured cells (SMN HTRF); type: cell-based, human; conditions: SMA patient fibroblast cells, 48 hours; for EC1.5x for Smn protein expression: 7-point concentration curve, SMN HTRF, concentration producing 1.5 times Smn protein vs DMSO vehicle control; for maximum fold (Fold) increase of Smn protein: 7-point concentration data, fold relative to vehicle control
Method in brief: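 Fibroblasts, SMA patient; 5,000 cells/well; 7-pt curve, 3.16-fold serial dilution; 48 h, 37 °C, 5% CO2; RIPA lysis 1 h RT; anti-SMN d2 + kryptate overnight RT; HTRF 665/620 nm; fold vs DMSO; EC1.5×, max fold.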

[2] = tested on: SMN2 minigene mRNA (SMN2-A minigene) in HEK293H cells; assay: SMN2 minigene mRNA splicing RT-qPCR assay in cultured cells; type: cell-based, human; conditions: Homo sapiens, HEK293-H; concentration increasing full length SMN2 mRNA 1.5-fold relative to vehicle-treated cells; HEK293H cells with SMN2-A minigene, 24 hours, 7-point concentration data; read-out: EC1.5x for production of full length SMN2 mRNA
Method in brief: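 Stable SMN2-A minigene HEK293H; cpd 7-pt 3.16-fold series, 200× in DMSO, 24 h, 37 °C, n=2. Lysates → multiplex RT-qPCR (minigene FL + GAPDH), efficiency-corrected ΔΔCt vs vehicle. EC1.5× = 1.5-fold FL mRNA gain.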

Compound	melting point	EC1.5x for Smn protein expression [1]	maximum fold (Fold) increase of Smn protein [1]	EC (1.5-fold increase) [2]
CCc1cc(-c2cc(=O)n3cc(N4CCN[C@H](C)C4)ccc3n2)cn2cc(C)nc12 [Compound 638, 2-(8-ethyl-2-methylimidazo[1,2-a]pyridin-6-yl)-7-[(3R)-3-methylpiperazin-1-yl]-4H-pyrido[1,2-a]pyrimidin-4-one]	230 to 234 °C	**** (an EC1.5x≤0.3 μM is indicated by four stars (****))	***** (a fold increase >1.65 is indicated by five stars (*****))	< 0.1 µM
CCc1cc(-c2cc(=O)n3cc(N4CCN[C@@H](C)C4)ccc3n2)cn2cc(C)nc12 [Compound 639, 2-(8-ethyl-2-methylimidazo[1,2-a]pyridin-6-yl)-7-[(3S)-3-methylpiperazin-1-yl]-4H-pyrido[1,2-a]pyrimidin-4-one]	232 to 236 °C	**** (an EC1.5x≤0.3 μM is indicated by four stars (****))	***** (a fold increase >1.65 is indicated by five stars (*****))	< 0.1 µM
Cc1cn2nc(-c3cc(=O)n4cc(C5CCN(C(C)C)CC5)ccc4n3)cc2c(C)n1 [Compound 640, 2-(4,6-dimethylpyrazolo[1,5-a]pyrazin-2-yl)-7-[1-(propan-2-yl)piperidin-4-yl]-4H-pyrido[1,2-a]pyrimidin-4-one]	196 to 198 °C	**** (an EC1.5x≤0.3 μM is indicated by four stars (****))	**** (a fold increase between >1.5 and ≤1.65 is indicated by four stars (****))	< 0.1 µM
Cc1cn2nc(-c3cc(=O)n4cc(C5CCN(C6CC6)CC5)ccc4n3)cc2c(C)n1 [Compound 641, 7-(1-cyclopropylpiperidin-4-yl)-2-(4,6-dimethylpyrazolo[1,5-a]pyrazin-2-yl)-4H-pyrido[1,2-a]pyrimidin-4-one]	180 to 183 °C	**** (an EC1.5x≤0.3 μM is indicated by four stars (****))	***** (a fold increase >1.65 is indicated by five stars (*****))	< 0.1 µM
Cc1cn2nc(-c3cc(=O)n4cc(C5CCN(C6CCC6)CC5)ccc4n3)cc2c(C)n1 [Compound 642, 7-(1-cyclobutylpiperidin-4-yl)-2-(4,6-dimethylpyrazolo[1,5-a]pyrazin-2-yl)-4H-pyrido[1,2-a]pyrimidin-4-one]	189 to 191 °C	**** (an EC1.5x≤0.3 μM is indicated by four stars (****))	***** (a fold increase >1.65 is indicated by five stars (*****))	< 0.1 µM
CCc1nc(C)cn2nc(-c3cc(=O)n4cc(N5CCN(C(C)C)[C@H](C)C5)ccc4n3)cc12 [Compound 643, 2-(4-ethyl-6-methylpyrazolo[1,5-a]pyrazin-2-yl)-7-[(3R)-3-methyl-4-(propan-2-yl)piperazin-1-yl]-4H-pyrido[1,2-a]pyrimidin-4-one]	242 to 244 °C	*** (an EC1.5× between >0.3 μM and ≤1 μM is indicated by three stars (***))	***** (a fold increase >1.65 is indicated by five stars (*****))	0.1 to 0.3 µM
CCc1nc(C)cn2nc(-c3cc(=O)n4cc(N5CCN(C6CC6)[C@H](C)C5)ccc4n3)cc12 [Compound 644, 7-[(3R)-4-cyclopropyl-3-methylpiperazin-1-yl]-2-(4-ethyl-6-methylpyrazolo[1,5-a]pyrazin-2-yl)-4H-pyrido[1,2-a]pyrimidin-4-one]	244 to 247 °C	*** (an EC1.5× between >0.3 μM and ≤1 μM is indicated by three stars (***))	***** (a fold increase >1.65 is indicated by five stars (*****))	0.1 to 0.3 µM
CCc1nc(C)cn2nc(-c3cc(=O)n4cc(N5CCN(C6CCC6)[C@H](C)C5)ccc4n3)cc12 [Compound 645, 7-[(3R)-4-cyclobutyl-3-methylpiperazin-1-yl]-2-(4-ethyl-6-methylpyrazolo[1,5-a]pyrazin-2-yl)-4H-pyrido[1,2-a]pyrimidin-4-one]	261 to 264 °C	**** (an EC1.5x≤0.3 μM is indicated by four stars (****))	***** (a fold increase >1.65 is indicated by five stars (*****))	< 0.1 µM
CCc1nc(C)cn2nc(-c3cc(=O)n4cc(N5CCN(C6COC6)[C@H](C)C5)ccc4n3)cc12 [Compound 646, 2-(4-ethyl-6-methylpyrazolo[1,5-a]pyrazin-2-yl)-7-[(3R)-3-methyl-4-(oxetan-3-yl)piperazin-1-yl]-4H-pyrido[1,2-a]pyrimidin-4-one]	216 to 219 °C	** (an EC1.5× between >1 μM and ≤3 μM is indicated by two stars (**))	***** (a fold increase >1.65 is indicated by five stars (*****))	0.3 to 1 µM
CCc1cc(-c2cc(=O)n3cc(N4CCN(CCO)CC4)ccc3n2)cn2cc(C)nc12 [Compound 647, 2-(8-ethyl-2-methylimidazo[1,2-a]pyridin-6-yl)-7-[4-(2-hydroxyethyl)piperazin-1-yl]-4H-pyrido[1,2-a]pyrimidin-4-one]	248 to 253 °C	**** (an EC1.5x≤0.3 μM is indicated by four stars (****))	***** (a fold increase >1.65 is indicated by five stars (*****))	< 0.1 µM
CCc1cc(-c2cc(=O)n3cc(N4CCN(C5CCC5)CC4)ccc3n2)cn2cc(C)nc12 [Compound 648, 7-(4-cyclobutylpiperazin-1-yl)-2-(8-ethyl-2-methylimidazo[1,2-a]pyridin-6-yl)-4H-pyrido[1,2-a]pyrimidin-4-one]	274 to 279 °C	**** (an EC1.5x≤0.3 μM is indicated by four stars (****))	***** (a fold increase >1.65 is indicated by five stars (*****))	< 0.1 µM
CCc1cc(-c2cc(=O)n3cc(N4CCN(CCO)[C@H](C)C4)ccc3n2)cn2cc(C)nc12 [Compound 649, 2-(8-ethyl-2-methylimidazo[1,2-a]pyridin-6-yl)-7-[(3R)-4-(2-hydroxyethyl)-3-methylpiperazin-1-yl]-4H-pyrido[1,2-a]pyrimidin-4-one]	217 to 220 °C	**** (an EC1.5x≤0.3 μM is indicated by four stars (****))	***** (a fold increase >1.65 is indicated by five stars (*****))	< 0.1 µM
CCc1cc(-c2cc(=O)n3cc(N4CCN(C5CCC5)[C@H](C)C4)ccc3n2)cn2cc(C)nc12 [Compound 650, 7-[(3R)-4-cyclobutyl-3-methylpiperazin-1-yl]-2-(8-ethyl-2-methylimidazo[1,2-a]pyridin-6-yl)-4H-pyrido[1,2-a]pyrimidin-4-one]	209 to 212 °C	**** (an EC1.5x≤0.3 μM is indicated by four stars (****))	***** (a fold increase >1.65 is indicated by five stars (*****))	< 0.1 µM
